Patent US5173510A, “Simplified thioester and isostere analogs of oleoyl coenzyme A as hypocholesterolemic agents” (American Cyanamid Company, priority 1991, dated 1992)

Target: T1, acyl coenzyme A: cholesterol O-acyltransferase (ACAT) (Oryctolagus cuniculus, UniProt G1SFD9)
T1 construct: The microsomal fraction was isolated by centrifugation and stored frozen; from tissue; host or cells: jejunal mucosa microsomes of New Zealand white rabbits
T1 sequence (G1SFD9 1-524): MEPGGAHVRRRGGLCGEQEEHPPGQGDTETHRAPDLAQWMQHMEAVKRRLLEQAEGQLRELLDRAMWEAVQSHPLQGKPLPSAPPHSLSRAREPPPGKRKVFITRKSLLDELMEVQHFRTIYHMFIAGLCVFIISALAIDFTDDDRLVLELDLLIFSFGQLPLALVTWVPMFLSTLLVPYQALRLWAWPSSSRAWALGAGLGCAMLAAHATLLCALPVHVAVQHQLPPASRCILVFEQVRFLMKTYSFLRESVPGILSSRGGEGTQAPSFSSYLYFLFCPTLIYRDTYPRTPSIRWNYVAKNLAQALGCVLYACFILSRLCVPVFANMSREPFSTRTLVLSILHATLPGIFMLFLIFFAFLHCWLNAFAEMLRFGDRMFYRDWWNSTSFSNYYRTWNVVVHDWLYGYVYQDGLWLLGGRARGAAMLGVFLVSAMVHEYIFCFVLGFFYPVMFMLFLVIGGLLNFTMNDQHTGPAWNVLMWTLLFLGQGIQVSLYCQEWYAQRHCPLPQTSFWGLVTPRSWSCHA
Test: Inhibition of ACAT catalyzed formation of cholesterol oleate from endogenous cholesterol and exogenous 14C oleate
Assay type: biochemical, New Zealand white rabbits
Conditions: for IC50: concentration at which 50% of the cholesterol esterification reaction is inhibited, rabbit jejunum mucosa microsomal fraction; for potency as inhibitors of the ACAT enzyme catalyzed reaction (in words): summary statement on Table I
Method: The compounds of this invention were tested for their ability to inhibit the acyl coenzyme A: cholesterol O-acyltransferase (ACAT) catalyzed formation of cholesterol oleate from endogenous cholesterol and exogenous ^14 C oleate.
The mucosa from the Jejunum of New Zealand white rabbits was removed by scraping with a spatula and homogenized in a solution containing 0.25M sucrose, 1 mM EDTA, 1 mM dithiothreitol and 5 mM of potassium phosphate (pH 7.4). The microsomal fraction was isolated by centrifugation and stored frozen at -70° C. in sucrose buffer (3 mg protein/ml) until use. The ACAT reaction was assayed using the method of S. Hashimoto, et al., Life Science 12, 1 (1973). The test compounds were dissolved in methanol at concentrations such that the addition of 0.003 ml in a reaction volume of 0.5 ml gave the final desired concentration.
Referring to the table, IC50 indicates the concentration of the compound at which 50% of the cholesterol esterfication reaction is inhibited. […] As can be observed from the table, the compounds of the present invention are very potent inhibitors of the ACAT enzyme catalyzed reaction. […] In view of the results presented in the table, these compounds are useful for controlling and reducing the cholesteryl ester content of mammalian arterial walls and decreasing the accumulation and storage of cholesterol in the arterial walls of mammals. Further, the compounds of this invention may inhibit the formation or development of atherosclerotic lesions in mammals.

IC50 [µM]	potency as inhibitors of the ACAT enzyme catalyzed reaction (in words)	SMILES
> 100	–	CCCCCCCC/C=C\CCCCCCCC(=O)SCCNC(C)=O [Example 3, S-[2-(Acetylamino)ethyl]-9(Z)-octadecenethioic acid]
> 100	–	CCCCCCCC/C=C\CCCCCCCC(=O)SCCNC(=O)CCNC(C)=O [Example 6, S-[2-[[3-(Acetylamino)-1-oxopropyl]amino]ethyl]-9(Z)-octadecenethioate]
103	–	CCCCCCCC/C=C\CCCCCCCC(=O)SCCNC(=O)CCNC(=O)[C@H](O)C(C)(C)CO [Example 10, S-[2-[[3-[(2,4-Dihydroxy-3,3-dimethyl-1-oxobutyl)amino]-1-oxopropyl]amino]ethyl]-9(Z)octadecenethioic acid]
> 100	–	CCCCCCCC/C=C\CCCCCCCC(=O)OCCNC(C)=O [Example 11]
> 150	–	CCCCCCCC/C=C\CCCCCCCC(=O)OCCNC(=O)CCNC(C)=O [Example 13, 2-[[3-(Acetylamino)-1-oxopropyl]amino]ethyl-9(Z)-octadecenoate]
77	–	CCCCCCCC/C=C\CCCCCCCC(=O)OCCNC(=O)CCNC(=O)C(O)C(C)(C)CO (stereo not drawn) [Example 17, 2-[[3-[(2,4-Dihydroxy-3,3-dimethyl-1-oxo-butyl)amino]-1-oxopropyl]amino]ethyl-9(Z)-octadecenoate]
39	–	CCCCCCCC/C=C\CCCCCCCC(=O)NCCNC(C)=O [Example 18, N-[2-(Acetylamino)ethyl]-9(Z)-octadecenamide]
> 100	–	CCCCCCCC/C=C\CCCCCCCC(=O)NCCNC(=O)CCNC(C)=O [Example 22, N-[2-[[3-(Acetylamino)-1-oxopropyl]amino]ethyl]-9(Z)-octadecenamide]
1.2	most potent	CCCCCCCC/C=C\CCCCCCCC(=O)NCCNC(=O)CCNC(=O)C1OC(C)(C)OCC1(C)C (stereo not drawn) [Example 25, 2,2,5,5-Tetramethyl-N-[3-oxo-3-[[2-[(1-oxo-9(Z)-octadecenyl)amino]ethyl]amino]propyl]-1,3-dioxane-4-carboxamide]
3.3	most potent	CCCCCCCC/C=C\CCCCCCCC(=O)NCCNC(=O)CCNC(=O)C(O)C(C)(C)CO (stereo not drawn) [Example 26, N-[2-[[3-[(2,4-Dihydroxy-3,3-dimethyl-1-oxo-butyl)amino]-1-oxopropyl]amino]ethyl]-9(Z)-octadecenamide]
47	–	CCCCCCCC/C=C\CCCCCCCC(O)CCCNC(C)=O (stereo not drawn) [Example 31]
66	–	CCCCCCCC/C=C\CCCCCCCC(=O)CCCNC(C)=O [Example 32]
108	–	CCCCCCCC/C=C\CCCCCCCC(O)CCCNC(=O)CCNC(C)=O (stereo not drawn) [Example 33, 3-(Acetylamino)-N-(4-hydroxy-12(Z)-heneicosenyl)propanamide]
113	–	CCCCCCCC/C=C\CCCCCCCC(=O)CCCNC(=O)CCNC(C)=O [Example 34, 3-(Acetylamino)-N-(4-oxo-12(Z)-heneicosenyl)propanamide]
99	–	CCCCCCCC/C=C\CCCCCCCC(=O)CCCNC(=O)CCNC(=O)C(O)C(C)(C)CO (stereo not drawn) [Example 37, 2,4-Dihydroxy-2,2-dimethyl-N-[3-oxo-3-[(4-oxo-12(Z)-heneicosenyl)amino]propyl]butanamide]
57	–	CCCCCCCC/C=C\CCCCCCCC(O)CCCNC(=O)CCNC(=O)C(O)C(C)(C)CO (stereo not drawn) [Example 38, 2,4-Dihydroxy-N-[3-[(4-hydroxy-12(Z)-heneicosyl)amino]-3-oxopropyl]-3,3-dimethylbutanamide]
